Measured values taken from article PMC2870997 (Bioorganic & medicinal chemistry letters, 2009).

Test system: PKA reporter Reg-F[1]:Cat-F[2]
Test: Protein-fragment complementation
Assay type: cell-based
Conditions: β2AR-HEK293 cells

Question: How did the “Effect on luminescence by β2AR activation (control)” value (1 μM, 30 min) turn out when `CC(C)NCC(O)c1ccc(O)c(O)c1` (centres unmarked) [Analogue 19, isoproterenol] was run?
Answer: The value was “able to reduce luminescence”.

Question: With `Cc1ccc(OCC(O)C(C)NC(C)C)c2c1CCC2` (centres unmarked) [Analogue 20, IC118551] as the compound, how does the “Effect of pretreatment on the response to 19 (control)” value (1 μM pretreatment) read?
Answer: Its value is “capable of preventing the effects of 19”.
